We go through 24 compounds from US20060276464A1, “Diarylsulfone sulfonamides and use thereof” (Wyeth, priority 2005, published 2006).

Experiment [1] concerns the target T1, SFRP-1 (Homo sapiens, UniProt Q8N474).
T1 sequence (Q8N474 32-314): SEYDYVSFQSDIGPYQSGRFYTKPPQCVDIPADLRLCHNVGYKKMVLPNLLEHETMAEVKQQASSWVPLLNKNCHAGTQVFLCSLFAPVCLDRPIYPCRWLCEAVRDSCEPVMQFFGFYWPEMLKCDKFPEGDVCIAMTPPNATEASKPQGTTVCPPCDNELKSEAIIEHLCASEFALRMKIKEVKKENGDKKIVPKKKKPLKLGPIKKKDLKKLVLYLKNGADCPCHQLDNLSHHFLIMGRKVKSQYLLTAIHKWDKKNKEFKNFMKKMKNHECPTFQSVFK
Kind of experiment: Fluorescence polarization binding assay (competitive displacement of a probe compound from SFRP-1).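 Further: test compound competes with a fluorescent probe held by SFRP-1, seen as a drop in probe anisotropy after incubation in darkness, with anisotropy as function of rising compound dose.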 The following applies: fluorescence anisotropy, 45 nM SFRP-1, 20 nM probe. (In fluorescence polarisation assays a small probe gives low polarisation when free and higher when bound to something large.)

Experiment [2] addresses T1, SFRP-1. Kind of experiment: Cell-based assay for in vitro measurement of SFRP-1/SARP2 antagonist activity (U2OS cells co-transfected with 16x TCF-tk-Luciferase reporter, Wnt and hSFRP-1).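 Further: U2OS cells co-transfected with a TCF-tk luciferase reporter, a Wnt vector, hSFRP-1 or empty vector and CMV-βgal, luciferase luminescence read in cell lysates alongside βgal activity.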 To be noted: U2OS. In general terms: In a reporter assay the amount or activity of a reporter protein is the signal.
[3] abbreviates: read-out: Fold Induction with SFRP-1, Conc 15 μM, single dose, luciferase reporter, fold induction over SFRP-1 control, cells with SFRP-1.
Where [4] appears, read: read-out: Fold Induction without SFRP-1, Conc 15 μM, single dose, luciferase reporter, cells without SFRP-1 (specificity control).

As a reminder, the IC50 is the concentration that inhibits the measured activity by half.

“And” between values parts separate entries of the source, which are not always exact repeats. Identical values can stand only once. Like-named read-outs stand apart in the source and are kept apart here.

In the case of `CC(C)c1ccc(S(=O)(=O)c2ccc(N3CCN(C)CC3)cc2)cc1S(=O)(=O)NC1CCOCC1` [Example 547, 2-isopropyl-5-{[4-(4-methylpiperazin-1-yl)phenyl]sulfonyl}-N-(tetrahydro-2H-pyran-4-yl)benzenesulfonamide], the IC50 at SFRP-1 [1] is 1000 nM and 2500 nM. Also, the fold induction at 15 µM on SFRP-1 [2] (setting [3]) stood at 3.7; at SFRP-1 [2] (setting [4]) it was 1.3.

The compound `CC(C)c1ccc(S(=O)(=O)c2ccc(N3CCN(C)CC3)cc2)cc1S(=O)(=O)NCC1CCOCC1` [Example 548, 2-isopropyl-5-{[4-(4-methylpiperazin-1-yl)phenyl]sulfonyl}-N-(tetrahydro-2H-pyran-4-ylmethyl)benzenesulfonamide] gave an IC50 at SFRP-1 [1] of 2200 nM. Moreover, the values for the fold induction at 15 µM on SFRP-1 [2] (setting [3]) and at SFRP-1 [2] (setting [4]) were 2.5 and 1.2, respectively.

`CC(C)c1ccc(S(=O)(=O)c2ccc(N3CCN(C)CC3)cc2)cc1S(=O)(=O)NCCC1CCOCC1` [Example 549, 2-isopropyl-5-{[4-(4-methylpiperazin-1-yl)phenyl]sulfonyl}-N-[2-(tetrahydro-2H-pyran-4-yl)ethyl]benzenesulfonamide]: the IC50 on SFRP-1 [1] was 1600 nM and 2900 nM. Moreover, the values for the fold induction at 15 µM on SFRP-1 [2] (setting [3]) and at SFRP-1 [2] (setting [4]) were 3.6 and 1.5, respectively.

For the compound `CCCc1ccc(S(=O)(=O)c2ccccc2)cc1S(=O)(=O)NCCc1ccccc1` [Example 550, N-(2-phenylethyl)-5-(phenylsulfonyl)-2-propylbenzenesulfonamide], the IC50 on SFRP-1 [1] came to 1300 nM. Further, the results for the fold induction at 15 µM at SFRP-1 [2] (setting [3]) and on SFRP-1 [2] (setting [4]) were 2.9 and 1.1, respectively.

For `CCCc1ccc(S(=O)(=O)c2ccccc2)cc1S(=O)(=O)NCC1CCOCC1` [Example 552, 5-(Phenylsulfonyl)-2-propyl-N-(tetrahydro-2H-pyran-4-ylmethyl)benzenesulfonamide], the IC50 on SFRP-1 [1] worked out at 1200 nM. The figures for the fold induction at 15 µM at SFRP-1 [2] (setting [3]) and at SFRP-1 [2] (setting [4]) were 2.4 and 1.2, respectively.

Consider `CCCc1ccc(S(=O)(=O)c2ccccc2)cc1S(=O)(=O)NCCC1CCOCC1` [Example 553, 5-(Phenylsulfonyl)-2-propyl-N-[2-(tetrahydro-2H-pyran-4-yl)ethyl]benzenesulfonamide], for which, on SFRP-1 [1], the IC50 worked out at 3000 nM. For the same compound, the fold induction at 15 µM was 2.5 on SFRP-1 [2] (setting [3]) and 1.1 at SFRP-1 [2] (setting [4]).

The compound `CCCc1ccc(S(=O)(=O)c2ccccc2)cc1S(=O)(=O)NC1CCCC1` [Example 554, N-Cyclopentyl-5-(phenylsulfonyl)-2-propylbenzenesulfonamide] returned an IC50 on SFRP-1 [1] of 1700 nM. For the same compound, the fold induction at 15 µM was 2.6 on SFRP-1 [2] (setting [3]) and 1.1 on SFRP-1 [2] (setting [4]).

`CCCc1ccc(S(=O)(=O)c2ccc(F)cc2)cc1S(=O)(=O)NCCc1ccccc1` [Example 559, 5-[(4-fluorophenyl)sulfonyl]-N-(2-phenylethyl)-2-propylbenzenesulfonamide] yielded an IC50 at SFRP-1 [1] of 1200 nM. The fold induction at 15 µM on SFRP-1 [2] (setting [3]) amounted to 2.3; on SFRP-1 [2] (setting [4]), 1.

Turning to `CCCc1ccc(S(=O)(=O)c2ccc(F)cc2)cc1S(=O)(=O)NCC1CCOCC1` [Example 561, 5-[(4-Fluorophenyl)sulfonyl]-2-propyl-N-(tetrahydro-2H-pyran-4-ylmethyl)benzenesulfonamide], at SFRP-1 [1], the IC50 came out at 1400 nM. Also, the fold induction at 15 µM was determined as 2.3 on SFRP-1 [2] (setting [3]) and 0.9 at SFRP-1 [2] (setting [4]).

In the case of `CCCc1ccc(S(=O)(=O)c2ccc(F)cc2)cc1S(=O)(=O)NCCC1CCOCC1` [Example 562, 5-[(4-Fluorophenyl)sulfonyl]-2-propyl-N-[2-(tetrahydro-2H-pyran-4-yl)ethyl]benzenesulfonamide], at SFRP-1 [1], the IC50 was 1600 nM. The fold induction at 15 µM at SFRP-1 [2] (setting [3]) was determined as 3.3; on SFRP-1 [2] (setting [4]) it was 1.2.

For `CCCc1ccc(S(=O)(=O)c2ccc(F)cc2)cc1S(=O)(=O)NC1CCCC1` [Example 563, N-Cyclopentyl-5-[(4-fluorophenyl)sulfonyl]-2-propylbenzenesulfonamide], the IC50 at SFRP-1 [1] was 3000 nM. Moreover, the fold induction at 15 µM at SFRP-1 [2] (setting [3]) is 2.8; at SFRP-1 [2] (setting [4]), 1.2.

For the compound `CCCc1ccc(S(=O)(=O)c2ccc(F)cc2)cc1S(=O)(=O)NCCCn1ccnc1` [Example 565, 5-[(4-Fluorophenyl)sulfonyl]-N-[3-(1H-imidazol-1-yl)propyl]-2-propylbenzenesulfonamide], the IC50 at SFRP-1 [1] was found to be 500 nM. Moreover, the fold induction at 15 µM on SFRP-1 [2] (setting [3]) was found to be 4; on SFRP-1 [2] (setting [4]) it was 1.2.

Take `CNc1ccc(S(=O)(=O)c2ccc(C(C)C)c(S(=O)(=O)NC3CCNCC3)c2)cc1` [Example 568, 2-isopropyl-5-{[4-(methylamino)phenyl]sulfonyl}-N-piperidin-4-ylbenzenesulfonamide]: the IC50 on SFRP-1 [1] is 500 nM. For the same compound, the fold induction at 15 µM on SFRP-1 [2] (setting [3]) came to 3.8; on SFRP-1 [2] (setting [4]), 1.1.

Consider `Cc1nn(C)c(Cl)c1S(=O)(=O)c1ccc(C(C)C)c(S(=O)(=O)NC2CCOCC2)c1` [Example 569, 5-[(5-chloro-1,3-dimethyl-1H-pyrazol-4-yl)sulfonyl]-2-isopropyl-N-(tetrahydro-2H-pyran-4-yl)benzenesulfonamide], for which the concentration for half-maximal inhibition (IC50) on SFRP-1 [1] turned out to be 1500 nM. The fold induction at 15 µM on SFRP-1 [2] (read-out: Fold Induction with SFRP-1) worked out at 3.8; on SFRP-1 [2] (read-out: Fold Induction without SFRP-1), 1.1.

At SFRP-1 [1], `CC(C)c1ccc(S(=O)(=O)c2ccc(F)cc2)cc1S(=O)(=O)NC1CCN(C(=O)N2CCOCC2)CC1` [Example 572, 5-[(4-fluorophenyl)sulfonyl]-2-isopropyl-N-[1-(morpholin-4-ylcarbonyl)piperidin-4-yl]benzenesulfonamide] registered an IC50 of 500 nM. Further, the fold induction at 15 µM at SFRP-1 [2] (setting [3]) came out at 1.7; on SFRP-1 [2] (setting [4]), 1.

At SFRP-1 [1], `CC(C)c1ccc(S(=O)(=O)c2ccc(F)cc2)cc1S(=O)(=O)NC1CCN(C(=O)N(C)C)CC1` [Example 573, 4-[({5-[(4-fluorophenyl)sulfonyl]-2-isopropylphenyl}sulfonyl)amino]-N,N-dimethylpiperidine-1-carboxamide] displayed an IC50 of 600 nM. Moreover, the results for the fold induction at 15 µM at SFRP-1 [2] (setting [3]) and on SFRP-1 [2] (setting [4]) were 2.1 and 1.1, respectively.

At SFRP-1 [1], `Cc1ccc(S(=O)(=O)c2ccc(F)cc2)cc1S(=O)(=O)NC1CCN(Cc2ccccc2)CC1` [Example 574, N-(1-benzylpiperidin-4-yl)-5-[(4-fluorophenyl)sulfonyl]-2-methylbenzenesulfonamide] registered an IC50 of 6000 nM. Also, the values for the fold induction at 15 µM at SFRP-1 [2] (setting [3]) and at SFRP-1 [2] (setting [4]) were 2.1 and 1.2, respectively.

Compound `CC(C)c1ccc([S+]([O-])c2ccccc2)cc1S(=O)(=O)NCCc1ccccn1` (stereo not drawn) [Example 575, 2-isopropyl-5-(phenylsulfinyl)-N-(2-pyridin-2-ylethyl)benzenesulfonamide] returned an IC50 at SFRP-1 [1] of 1800 nM. The results for the fold induction at 15 µM at SFRP-1 [2] (setting [3]) and on SFRP-1 [2] (setting [4]) were 2.6 and 1.1, respectively.

On SFRP-1 [1], `Cc1c(Br)cccc1S(=O)(=O)c1ccc(C(C)C)c(S(=O)(=O)NCCc2ccccn2)c1` [Example 577, 5-[(3-bromo-2-methylphenyl)sulfonyl]-2-isopropyl-N-(2-pyridin-2-ylethyl)benzenesulfonamide] showed an IC50 of 700 nM. The results for the fold induction at 15 µM on SFRP-1 [2] (setting [3]) and on SFRP-1 [2] (setting [4]) were 1.9 and 1.2, respectively.

For `Cc1cccc(Cl)c1S(=O)(=O)c1ccc(C(C)C)c(S(=O)(=O)NCCc2ccccn2)c1` [Example 578, 5-[(2-chloro-6-methylphenyl)sulfonyl]-2-isopropyl-N-(2-pyridin-2-ylethyl)benzenesulfonamide], the IC50 on SFRP-1 [1] was determined as 600 nM. Besides, the results for the fold induction at 15 µM on SFRP-1 [2] (setting [3]) and at SFRP-1 [2] (setting [4]) were 2.8 and 1.2, respectively.

At SFRP-1 [1], `Cc1cccc(S(=O)(=O)c2ccc(C(C)C)c(S(=O)(=O)NCCc3ccccn3)c2)c1` [Example 579, 2-isopropyl-5-[(3-methylphenyl)sulfonyl]-N-(2-pyridin-2-ylethyl)benzenesulfonamide] gave an IC50 of 600 nM. The fold induction at 15 µM on SFRP-1 [2] (setting [3]) was 3.4; on SFRP-1 [2] (setting [4]), 1.

Consider `CC(C)c1ccc(S(=O)(=O)c2ccc(N(C)CCC#N)cc2)cc1S(=O)(=O)NC1CCOCC1` [Example 580, 5-({4-[(2-cyanoethyl)(methyl)amino]phenyl}sulfonyl)-2-isopropyl-N-(tetrahydro-2H-pyran-4-yl)benzenesulfonamide], for which the IC50 on SFRP-1 [1] amounted to 700 nM. Moreover, the fold induction at 15 µM on SFRP-1 [2] (setting [3]) was determined as 2.8; at SFRP-1 [2] (setting [4]), 1.3.

Compound `CC(C)c1ccc(S(=O)(=O)c2ccc(N(C)CCC#N)cc2)cc1S(=O)(=O)NCC1CCOCC1` [Example 581, 5-({4-[(2-cyanoethyl)(methyl)amino]phenyl}sulfonyl)-2-isopropyl-N-(tetrahydro-2H-pyran-4-ylmethyl)benzenesulfonamide] showed an IC50 at SFRP-1 [1] of 1000 nM. For the same compound, the fold induction at 15 µM is 2.2 on SFRP-1 [2] (setting [3]) and 1.3 on SFRP-1 [2] (setting [4]).

At SFRP-1 [1], `Cc1nccn1CCNS(=O)(=O)c1cc(S(=O)(=O)c2ccc(F)cc2)ccc1C(C)C` [Example 583, 5-[(4-fluorophenyl)sulfonyl]-2-isopropyl-N-[2-(2-methyl-1H-imidazol-1-yl)ethyl]benzenesulfonamide] gave an IC50 of 300 nM. The fold induction at 15 µM on SFRP-1 [2] (setting [3]) is 3.9; at SFRP-1 [2] (setting [4]) it was 1.1.
